{
  "source": "patent US8686150B2",
  "about": "(Sanofi, priority 2011, dated 2014)",
  "biological_target": "T1, human full-length recombinant PKC βII (Homo sapiens, UniProt P05771)",
  "T1 construct": "Active human full-length recombinant PKC βII; purchased Invitrogen GmbH, Darmstadt, Germany",
  "T1 sequence (P05771 1-673 isoform P05771-2)": "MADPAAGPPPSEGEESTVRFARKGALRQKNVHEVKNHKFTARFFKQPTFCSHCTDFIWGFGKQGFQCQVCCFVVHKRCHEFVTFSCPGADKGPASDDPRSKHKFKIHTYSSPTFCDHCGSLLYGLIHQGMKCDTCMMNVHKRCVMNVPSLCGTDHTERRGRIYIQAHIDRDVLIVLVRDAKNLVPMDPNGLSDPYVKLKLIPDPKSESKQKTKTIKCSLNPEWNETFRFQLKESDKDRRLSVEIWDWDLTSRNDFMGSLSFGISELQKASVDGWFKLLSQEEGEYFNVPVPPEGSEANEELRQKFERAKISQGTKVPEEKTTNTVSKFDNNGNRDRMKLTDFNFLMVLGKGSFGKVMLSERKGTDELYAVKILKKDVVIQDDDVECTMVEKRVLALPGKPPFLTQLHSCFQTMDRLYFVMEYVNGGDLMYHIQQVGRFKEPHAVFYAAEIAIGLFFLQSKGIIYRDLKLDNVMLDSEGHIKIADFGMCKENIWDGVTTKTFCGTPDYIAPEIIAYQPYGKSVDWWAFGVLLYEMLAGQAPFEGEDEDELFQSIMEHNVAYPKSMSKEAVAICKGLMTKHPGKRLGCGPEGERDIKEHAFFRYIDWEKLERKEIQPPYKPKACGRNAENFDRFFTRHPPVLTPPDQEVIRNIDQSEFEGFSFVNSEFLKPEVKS",
  "test": "Determination of PKC βII inhibition (Caliper mobility-shift kinase assay, Fluorescein-RFARKGSLRQKNV peptide substrate)",
  "type": "biochemical",
  "conditions": "example compounds at a final concentration of 1.14 μM (±0.15 μM)",
  "procedure,_shortened": "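Compounds were tested at 1.14 μM final. Enzyme was activated by PS, DAG and CaCl2 in Hepes pH 7.4 with MgCl2, with substrate 3 μM and ATP 120 μM as pre-mix concentrations. After 60 min at 32 °C and an EDTA stop, Caliper separation gave fractional turnover, which was normalised to no-compound and no-enzyme controls.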",
  "data": [
    {"smiles": "Cc1n[nH]c2nc(-c3ccc(O)c(F)c3)cc(C(=O)NC3CNC3)c12", "note": "[Example 302, 6-(3-Fluoro-4-hydroxy-phenyl)-3-methyl-1H-pyrazolo[3,4-b]pyridine-4-carboxylic acid azetidin-3-ylamide]", "values": [
      {"measurement": "inhibition at 1.14 µM", "result": 82, "unit": "%"}
    ]},
    {"smiles": "N[C@H]1CCN(C(=O)c2cc(-c3ccc(O)cc3)nc3[nH]nc(C(F)(F)F)c23)C1", "note": "[Example 404, ((S)-3-Amino-pyrrolidin-1-yl)-[6-(4-hydroxy-phenyl)-3-trifluoromethyl-1H-pyrazolo[3,4-b]pyridin-4-yl]-methanone]", "values": [
      {"measurement": "inhibition at 1.14 µM", "result": 31, "unit": "%"}
    ]},
    {"smiles": "CCOC1CNCC1NC(=O)c1cc(-c2ccc(O)cc2)nc2[nH]nc(C)c12", "note": "(stereo not shown) [Example 44, 6-(4-Hydroxy-phenyl)-3-methyl-1H-pyrazolo[3,4-b]pyridine-4-carboxylic acid (4-ethoxy-pyrrolidin-3-yl)-amide]", "values": [
      {"measurement": "inhibition at 1.14 µM", "result": 83, "unit": "%"}
    ]},
    {"smiles": "Cc1n[nH]c2nc(-c3ccc(O)cc3)cc(C(=O)N3CCC4(CC3)CNCCO4)c12", "note": "[Example 259, [6-(4-Hydroxy-phenyl)-3-methyl-1H-pyrazolo[3,4-b]pyridin-4-yl]-(1-oxa-4,9-diaza-spiro[5.5]undec-9-yl)-methanone]", "values": [
      {"measurement": "inhibition at 1.14 µM", "result": 29, "unit": "%"}
    ]},
    {"smiles": "Cc1n[nH]c2nc(-c3ccc(O)cc3)cc(C(=O)NC3CCN(C)CC3)c12", "note": "[Example 220, 6-(4-Hydroxy-phenyl)-3-methyl-1H-pyrazolo[3,4-b]pyridine-4-carboxylic acid (1-methyl-piperidin-4-yl)-amide]", "values": [
      {"measurement": "inhibition at 1.14 µM", "result": 88, "unit": "%"}
    ]},
    {"smiles": "Cc1n[nH]c2nc(-c3ccc(O)c(F)c3)cc(C(=O)N[C@@H]3[C@H]4CC[C@H](C4)[C@H]3CN)c12", "note": "(stereo in doubt) [Example 311, 6-(3-Fluoro-4-hydroxy-phenyl)-3-methyl-1H-pyrazolo[3,4-b]pyridine-4-carboxylic acid (3-aminomethyl-bicyclo[2.2.1]hept-2-yl)-amide]", "values": [
      {"measurement": "inhibition at 1.14 µM", "result": 74, "unit": "%"}
    ]},
    {"smiles": "Cc1n[nH]c2nc(-c3ccc(O)cc3F)cc(C(=O)N3C[C@@H](C)N(Cc4ccccn4)C[C@@H]3C)c12", "note": "[Example 452, ((2S,5R)-2,5-Dimethyl-4-pyridin-2-ylmethyl-piperazin-1-yl)-[6-(2-fluoro-4-hydroxy-phenyl)-3-methyl-1H-pyrazolo[3,4-b]pyridin-4-yl]-methanone]", "values": [
      {"measurement": "inhibition at 1.14 µM", "result": 83, "unit": "%"}
    ]},
    {"smiles": "COC[C@H]1CNCCN1C(=O)c1cc(-c2ccc(O)cc2)nc2[nH]nc(C)c12", "note": "[Example 21, [6-(4-Hydroxy-phenyl)-3-methyl-1H-pyrazolo[3,4-b]pyridin-4-yl]-((R)-2-methoxymethyl-piperazin-1-yl)-methanone]", "values": [
      {"measurement": "inhibition at 1.14 µM", "result": 121, "unit": "%"}
    ]},
    {"smiles": "Cc1n[nH]c2nc(-c3ccc(O)cc3F)cc(C(=O)N3CCNC(C4CC4)C3)c12", "note": "(stereo not shown) [Example 423, (3-Cyclopropyl-piperazin-1-yl)-[6-(2-fluoro-4-hydroxy-phenyl)-3-methyl-1H-pyrazolo[3,4-b]pyridin-4-yl]-methanone]", "values": [
      {"measurement": "inhibition at 1.14 µM", "result": 84, "unit": "%"}
    ]},
    {"smiles": "Cc1n[nH]c2nc(-c3ccc(O)cc3)cc(C(=O)N3CC4(CCNCC4)C3)c12", "note": "[Example 234, (2,7-Diaza-spiro[3.5]non-2-yl)-[6-(4-hydroxy-phenyl)-3-methyl-1H-pyrazolo[3,4-b]pyridin-4-yl]-methanone]", "values": [
      {"measurement": "inhibition at 1.14 µM", "result": 94, "unit": "%"}
    ]},
    {"smiles": "Cc1n[nH]c2nc(-c3ccc(O)cc3)cc(C(=O)N3CCNC[C@@H]3c3ccccc3)c12", "note": "[Example 27, [6-(4-Hydroxy-phenyl)-3-methyl-1H-pyrazolo[3,4-b]pyridin-4-yl]-((S)-2-phenyl-piperazin-1-yl)-methanone]", "values": [
      {"measurement": "inhibition at 1.14 µM", "result": 95, "unit": "%"}
    ]},
    {"smiles": "Cc1n[nH]c2nc(-c3ccc(O)cc3)cc(C(=O)N3CC(C)(C)NCC3(C)C)c12", "note": "[Example 121, [6-(4-Hydroxy-phenyl)-3-methyl-1H-pyrazolo[3,4-b]pyridin-4-yl]-(2,2,5,5-tetramethyl-piperazin-1-yl)-methanone]", "values": [
      {"measurement": "inhibition at 1.14 µM", "result": 99, "unit": "%"}
    ]},
    {"smiles": "Cc1n[nH]c2nc(-c3ccc(O)cc3)cc(C(=O)N3CC(C)(C)NCC3C)c12", "note": "(stereo not shown) [Example 113, [6-(4-Hydroxy-phenyl)-3-methyl-1H-pyrazolo[3,4-b]pyridin-4-yl]-(2,5,5-trimethyl-piperazin-1-yl)-methanone]", "values": [
      {"measurement": "inhibition at 1.14 µM", "result": 93, "unit": "%"}
    ]}
  ]
}
